Test results reported in patent US6204067A, “Methods of identifying modulators of the estrogen receptor” (Board of Trustees Operating Michigan State University, priority 1999, dated 2001).

Key:
[1] = test system: microsomes isolated from MCF-7/ADR cells; assay: In vitro acidification of MCF-7/ADR microsomes (acridine orange quenching); type: biochemical
Procedure: Cells were grown in Minimal Essential. Medium supplemented with 10% Fetal Bovine Serum to confluence in 10 level Cell Factories (Nunc, Naperville, Ill.), trypsinized, washed 3× with cold PBS and lysed with a Dounce homogenizer (Pestle A) in 0.25 M sucrose, 20 mM HEPES (pH 7.4), 1 mM DTT, 1 mM EDTA, and 1× protease inhibitor mix (1 μg/ml leupeptin, 1 μ/ml pepstatin A, 1 μg/ml aprotinin, and 16 μM PMSF mixed to 100× before use). The homogenate was centrifuged twice for 10 minutes at 3000×g to remove unbroken cells and nuclei. The supernatant was layered over 20 ml of 0.5 M sucrose (20 mM HEPES (pH 7.4), 1 mM DTT, 1 mM EDTA, 1× protease inhibitor mix) and 1 ml of 2 M sucrose and centrifuged for 1 hour at 100,000 g (Beckman Ti60 Rotor). Microsomes are collected at the 0.5M and 2M interface.
To monitor acidification of the total microsomal fraction, the quenching of AO fluorescence was monitored essentially as described previously [Barasch et al., Nature 352:70-73 (1991)]. Acidic vesicles accumulate AO to high concentrations resulting in the self quenching of the dye and a decrease of the overall fluorescence. Fluorescence was measured on an SLM Aminco-Bowman series 2 luminescence spectrometer with λex =488 nm and λem =530 nm Microsomes (80 μg protein) were suspended in 2.5 ml vesicle buffer (125 mM KCl, 5 mM MgCl2, 20 mM HEPES (pH 7.4), 1 mM DTT, 1 mM EDTA, 2 mM NaN3), with 6 μM AO (5 mM stock in H2 O) in a cuvet. […] After equilibration for 30 minutes at 25° C. 1 mM Tris-ATP was added to begin acidification (100 mM stock, titrated to pH 7.4 with 1 M Tris-base before use). Twenty minutes later, 2.5 μM of nigericin (10 mM stock in EtOH) was added to dissipate any ΔpH formation.
Acridine orange (AO) was used as a probe for lumenal acidification. As vesicles acidify, they accumulate AO to self-quenching concentrations, and deplete the extra-vesicular free AO, resulting in a decrease in total fluorescence. Acidification was initiated by the addition of ATP to a purified microsomal fraction in the absence of cytosol (FIG. 1A, at t=300 sec). […] Nigericin, a K^+ /H^+ exchanger that rapidly dissipates pH gradients, was added at the end of each reaction (t=1500 seconds).

yeast vATPase = assay: Bafilomycin-inhibitable ATPase activity of yeast vATPase; type: biochemical, S. cerevisiae; conditions: 5 μM, chloride and gluconate buffer
Procedure: Vacuoles were diluted in KCl or K-gluconate vesicle buffer. […] Each of the four resulting samples was again split into two and either carrier or […] bafilomycin A1 was added. Next, 2 mM Tris-ATP was added to each sample and the vacuoles were incubated at 30° C. for 15 minutes. To measure the phosphate concentration from ATP hydrolysis, equal volume of Taussky-Shorr Reagent (1% w/v ainmoniummolybdate (w/v), 2.7% v/v sulfuric acid, and 5% w/v ferrous sulfate hexahydrate) was added and the samples were developed for 15 minutes. The A660 was measured (Spectronic Genesys 2) which is linearly related to phosphate concentration. The bafilomycin inlubtable ATPase activity was taken as the difference between the ATPase activity of each condition with or without 100 nM bafilomycin A1.
Replacing chloride with gluconate decreased the bafilomycin-inhibitable ATPase activity (FIG. 3B), further confirming that chloride provided the counter-ion transport to dissipate the Vm.

[2] = NMR in 10% Triton solution; cited from earlier work

CC/C(=C(\c1ccccc1)c1ccc(OCCN(C)C)cc1)c1ccccc1 [tamoxifen]
time to almost complete dissipation of the pH gradient ([1]; added 10 minutes after ATP, 8 μM tamoxifen (FIG. 1B)): ≤ 5 minutes
rate of dissipation of pre-existing pH gradient ([1]; added 10 minutes after ATP, tamoxifen 8 μM, bafilomycin A1 100 nM): rapidly reversed acidification
concentration at which acidification was totally blocked ([1]; pre-treated 30 minutes): 8 µM
concentration at which inhibition of acidification was evident ([1]; pre-treated 30 minutes): 1 µM
effect on bafilomycin-inhibitable ATPase activity (yeast vATPase): increase of ATPase activity
pKa [2]: 6.9
